Data set [1] in a line: survival, clinical manifestation, weight and water intake of rats during feeding of test substances. Format: in vivo, F344/DuCrj male rats. Here is the method:
(§1) F344/DuCrj male rats (Charles River Japan Inc.) were used as test animals. The rats were subjected to a subcutaneous administration of DMH of 20 mg/kg once a week, for 4 weeks. They were divided into a group 1 fed with a basic feed (labo MR stock, manufactured by Nihon Nosan Kogyo KK), a group 2 fed with PhIP (200 ppm) only, and a group 3 fed with a mixture of PhIP (200 ppm) and PCC (5%). The rats (20 per group) were allowed to take the feed freely for 32 weeks.
With an electronic balance (LC2200, manufactured by Sartorius), the weight of each rat was measured once a week until 14th week after initiation of the experiment, and thereafter measured once every two weeks. The feed intake amount of each rat was also measured once a week until 14th week, and thereafter measured once every other week in the same manner as the weight measurement, except that the feed intake amount for two days was measured.
With an electronic balance (LC2200, manufactured by Sartorius), an intake amount of water for two days was measured once a week until 14th week, and thereafter measured once every other week.

For data set [2], the system named is large intestine cancer. The data set is described as follows: carcinostatic effect against PhIP-promoted, DMH-initiated large intestine cancer in rats (macroscopic pathologic examination). Format: in vivo, F344/DuCrj male rats. The following applies: DMH 20 mg/kg s.c. once a week for 4 weeks, then feed for 32 weeks, group 2 PhIP 200 ppm only, group 3 PhIP 200 ppm + PCC 5%.
From the text: Using DMH (1,2-dimethylhydradinedihydrochloride, manufactured by Tokyo Kasei Kogyo Co., Ltd., Lot. FIH01-UR) as an initiator of large intestine cancer, the carcinostatic effect of a purple corn pigment (manufactured. by San-Ei gen F.F.I., Inc. Lot. 990519, containing 10.8% of the compound of the formula (III) and 6.5% of the compound of the formula (IV), hereinafter referred to as PCC) was examined against the carcinogenesis promoting effect of PhIP (2-amino-1-methyl-6-phenylimidazo [4,5-b] pyridine (Toronto Research Chemical Inc., Lot. 5-YCX-55-2).
as §1
The rats alive at the end of the experiment were fasted and then bled for euthanasia under deep anesthesia. They were dissected together with the dead rat of the group 2 to macroscopically examine tumorigenesis in various organs in the thoracic cavity and the abdominal cavity.
In every rat, tumorigenesis was not observed in other organs than the large intestine (cecum, colon, rectum). The tumor generated in the large intestine was recognized as cancer by the macroscopic pathologic examination.

As to `Cn1c(N)nc2ncc(-c3ccccc3)cc21` [PhIP, 2-amino-1-methyl-6-phenylimidazo[4,5-b]pyridine], the water intake amount entry in data set [1] (5th and 6th weeks, group 2 PhIP 200 ppm, group 3 PhIP 200 ppm + PCC 5%, group 1 about 20) is recorded as “about 19 g/animal/day”. Moreover, the “survival until the end of the experiment” value in data set [1] (32 weeks feeding after DMH, 20 rats per group) is reported as “one in the group 2 died during the experiment”. For the same compound, the “weight of the rats reached during administration of test substances (from about 230 g)” value in data set [1] (group 2 PhIP 200 ppm, group 3 PhIP 200 ppm + PCC 5%, group 1 basic feed about 360 g) was about 315 g. Besides, in data set [2] (20 rats per group), the “Number of rats having tumor” value was 17 and the Numbers of tumors is given as 48. In data set [2], the “Number of tumors/number of rats having tumor” value came out at 2.82.

Source of the values: US20040053859A1, “Preventive or therapeutic agent for cancer containing cyanidin compound as active ingredient” (priority 2000, published 2004).
